# Source: patent US8530457B2, “Method for the treatment of lymphangioleiomyomatosis (LAM)” (Fox Chase Cancer Center, priority 2008, dated 2013)
# “Also recorded” adds a separate entry of the source.
# Key:
# [1] = test system: tuberin-deficient ELT3 cells; experiment: Subcutaneous ELT3 xenograft in CB17-scid mice: primary tumors and pulmonary metastases; format: in vivo
# Method: (§1) All animal work was performed in accordance with a protocol approved by the FCCC Institutional Animal Care and Use Committee. Male CB-17 scid mice, six weeks of age, were purchased from Fox Chase Cancer Center. Female ovariectomized CB17-scid mice, six to eight weeks of age, were purchased from Taconic (Hudson, N.Y.). One week prior to cell injection, 17-beta estradiol or control-placebo pellets (2.5 mg, 90-day release) (Innovative Research America, Sarasota, Fla.) were implanted. For xenograft tumor establishment, subconfluent ELT3 cells were harvested, washed in PBS, and resuspended in 0.2 ml of serum-free medium. Two millions ELT3 cells were injected into both flanks of the mouse subcutaneously. For metastatic and circulating tumor cells assays, 2×10^5 ELT3 or ELT3-Luc cells were resuspended in 0.1 ml PBS and injected into the lateral tail vein of mice. Lung metastases were scored from 3-5 five-micron H&E stained sections of each lobe at 40× magnification by observers blinded to the experimental conditions.
# CI-1040 (PD184352) was obtained from Pfizer (Ann Arbor, Mich.) and was prepared in a vehicle of 10% Cremophore EL (Sigma), 10% ethanol and 80% water. RAD001 was obtained from Novartis Pharma AG (Basel, Switzerland) and was diluted in double-distilled water. Drug were administered one day post cell inoculation at the following doses: RAD001 (4 mg/kg/day, gavage); CI-1040, (150 mg/kg/day gavage, twice a day)
# Subcutaneous tumors were removed from animals upon sacrifice. Tumor weights were recorded, and tumor size was measured in two dimensions with calipers.
# ELT3 cells were inoculated subcutaneously into the flanks of ovariectomized CB17-SCID mice, which were supplemented 1 week before with either placebo or E2 pellets (2.5 mg, 90-day release). Tumors arose in 100% of both estrogen and placebo-treated mice. […] The proliferative potential of ELT3 cells in vivo was examined using Ki-67 immunoreactivity.
# ELT3-luciferase cells = experiment: Lung colonization of i.v. injected ELT3-luciferase cells, bioluminescent imaging; format: in vivo, mice
# Method: as §1, with “For metastatic and circulating tumor cells assays, 2×10^5 ELT3 or ELT3-Luc cells were resuspended in 0.1 ml PBS and injected into the lateral tail vein of mice.” left out
# One million ELT3 cells were transfected with 3 μg of pCMV-Luc (Invitrogen, Carlsbad, Calif.) using Nucleofection reagent (Amaxa, Gaithersburg, Md.). Cells were selected in G418 for 2 weeks, and G418 resistant clones were isolated and examined for luciferase activity.
# Ten minutes prior to imaging, animals were injected with luciferin (Xenogen, Alameda, Calif.) (120 mg/kg, i.p.). Bioluminescent signals were recorded at indicated times post cell injection using Xenogen IVIS System (Xenogen). Total photon flux at the chest regions and from the dissected lungs was analyzed.
# ELT3 cells [2] = experiment: Circulating and lung tumor cell DNA by rat-specific real-time PCR; format: in vivo, mice
# Method: as §1, with “For metastatic and circulating tumor cells assays, 2×10^5 ELT3 or ELT3-Luc cells were resuspended in 0.1 ml PBS and injected into the lateral tail vein of mice.” left out
# Mouse blood (0.5 mL) was collected at indicated times by intraocular bleed, and red blood cells were lysed before DNA extraction. At death, the lungs were dissected and stored at −80° C. for DNA extraction. Rat and mouse DNAs were quantified by using TaqMan-chemistry based real-time PCR assays. […] The primers amplify a LINE repeat element (AC087102). The assay for mouse is for the gene Anf. The sequences (all 5′ to 3′) for the primers and probes are:
# PCR master mix from Eurogentec was used for PCR. Primers and probe concentrations were 500 and 100 nM, respectively. Cycling conditions were 95° C., 15 minutes followed by 40 (2-steps) cycles (95° C., 15 sec; 60° C., 60 sec). Reactions were run using an ABI 7900 HT instrument. Each sample was analyzed using two different amounts of input DNA. […] Bioluminescent Reporter Imaging
# ELT3 cells [3] = experiment: Anoikis assay of ELT3 cells on PolyHEMA (caspase-3, DNA fragmentation, Bim, regrowth); format: cell-based, rat
# Method: (§2) Cells were rinsed once in ice-cold PBS and lysed in PTY buffer (50 mM Hepes, pH 7.5, 50 mM NaCl, 5 mM EDTA, 50 mM NaF, 10 mM Na4P2O7, and 1% Triton 100) supplemented with phosphatase inhibitors. Lysates were resolved by SDS-PAGE electrophoresis and transferred onto Immobilon P membranes (Millipore). Cytoplasmic and nuclear fractions were separated using CellLytic Nuclear Extraction Kit (Sigma) before electrophoresis. […] Western blots were developed using horseradish peroxidase-conjugated secondary antibodies and ECL chemiluminescence (Amersham Biosciences).
# ELT3 cells were cultured with or without 10 nM E2 in serum-free and phenol red-free medium supplemented with 10% charcoal-stripped FBS for 24 hours. […] Cell death as a function of DNA fragmentation was detected using Cell Death Detection ELISA kit (Roche Diagnostics).
# The surviving cells in suspension were plated in triplicate in 24-well plates and allowed to grow adherently for 24 hours. ^3H-thymidine (1 μCi) was added to the media and the cells were incubated at 37° C. for 6 hours, washed with PBS, and lysed in 0.5 mL of 0.5 N NaOH plus 0.5% SDS. ^3H-thymidine incorporation was measured by scintillation counting.
# p42/44 MAPK [4] = experiment: Immunoblot of phosphorylated p42/44 MAPK in ELT3 cells; format: cell-based, rat
# Method: Prior to the in vitro experiments, cells were maintained in media supplemented with 10%-charcoal-stripped FBS for three days and then serum starved for 24 hours in serum-free and phenol red-free medium. E2 (10 nM, Sigma, St. Louis, Mo.) or PD98059 (50 μM, Cell Signaling Technology, Danvers, Mass.) was added to the cells as indicated.
# as §2
# ribosomal protein S6 = experiment: Immunoblot of phosphorylated ribosomal protein S6 in ELT3 cells; format: cell-based, rat; conditions: E2 stimulation
# Method: (§3) ELT-3 cells (Eker rat uterine leiomyoma-derived smooth muscle cells) were cultured in IIA complete medium (DMEM/F12 basal media including 15% FBS, 0.2 μM hydrocortisone, 10 μU/mL vasopressin, 1×FeSO4, 10 ng/mL EGF, 1×ITS, 0.01 nM triiolythryonine, 0.12% sodium bicarbonate, 1× cholesterol and 1× penicillin/streptomycin) supplemented with 15% FBS. Prior to the in vitro experiments, cells were maintained in media supplemented with 10%-charcoal-stripped FBS for three days and then serum starved for 24 hours in serum-free and phenol red-free medium. E2 (10 nM, Sigma, St. Louis, Mo.) or PD98059 (50 μM, Cell Signaling Technology, Danvers, Mass.) was added to the cells as indicated.
# (§4) Cells were rinsed once in ice-cold PBS and lysed in PTY buffer (50 mM Hepes, pH 7.5, 50 mM NaCl, 5 mM EDTA, 50 mM NaF, 10 mM Na4P2O7, and 1% Triton 100) supplemented with phosphatase inhibitors. Lysates were resolved by SDS-PAGE electrophoresis and transferred onto Immobilon P membranes (Millipore). Cytoplasmic and nuclear fractions were separated using CellLytic Nuclear Extraction Kit (Sigma) before electrophoresis. […]
# p42/44 MAPK [5] = experiment: Phospho-p42/44 MAPK immunostaining of primary xenograft tumors; format: in vivo, mice; conditions: placebo 28%
# Method: Sections were deparaffinized, incubated overnight with primary antibodies at 4° C. in a humidified chamber and then rinsed and incubated with biotinylated secondary antibodies for 30 minutes at room temperature. Slides were developed using the Broad Spectrum AEC Histostain-Plus (Invitrogen) or Histostain-Plus kit (Invitrogen), and they were counterstained with Gill's hematoxylin.
# as §1
# C-Raf = experiment: Immunoblot of phosphorylated C-Raf/Raf-1 in ELT3 cells; format: cell-based, rat; conditions: E2 stimulation
# Method: as §3, §4
# ELT3 cells [6] = experiment: ELT3 cell proliferation in response to E2, 3H-thymidine incorporation; format: cell-based, rat; conditions: day 5, E2 treatment vs control
# Method: as §3
# The surviving cells in suspension were plated in triplicate in 24-well plates and allowed to grow adherently for 24 hours. ^3H-thymidine (1 μCi) was added to the media and the cells were incubated at 37° C. for 6 hours, washed with PBS, and lysed in 0.5 mL of 0.5 N NaOH plus 0.5% SDS. ^3H-thymidine incorporation was measured by scintillation counting. […]
# [7] = RAD001 4 mg/kg/day by gavage, 5 days per week, in the presence of estrogen or placebo
# [8] = female mice, subset n=4 with primary tumors of similar size
molecule,measurement,setting,value
"O=C(NOCC1CC1)c1ccc(F)c(F)c1Nc1ccc(I)cc1Cl [CI-1040, 2-(2-chloro-4-iodo-phenylamino)-N-cyclopropylmethoxy-3,4-difluoro-benzamide]",tumor formation,"[1]; CI-1040 150 mg/kg/day by gavage, twice a day, not statistically significant",delayed
same,reduction of the size of primary tumors,"[1]; E2 animals, CI-1040 150 mg/kg/day by gavage, not statistically significant",25%
same,lung metastases,"[1]; mice treated with E2 plus CI-1040 150 mg/kg/day by gavage, 150 mg/kg/day",no lung metastases were detected; also recorded: completely blocked
same,"decrease of bioluminescence in chest regions, E2 plus CI-1040 vs E2",ELT3-luciferase cells; 5 h post-cell injection,55%
same,"reduction of bioluminescent signals in ex vivo lungs, E2 plus CI-1040 vs E2",ELT3-luciferase cells; 60 h post-cell injection,96%
same,reduction of levels of circulating ELT3 cells in the blood,"ELT3 cells [2]; E2-treated xenograft animals, CI-1040 150 mg/kg/day by gavage",84%
COc1cccc(-c2cc(=O)c3ccccc3o2)c1N [PD98059],phosphorylation of S6K,ELT3 cells [3]; 1 h after detachment,decreased
same,E2-enhanced survival (3H-thymidine incorporation after replating),"ELT3 cells [3]; 24 h on PolyHEMA then replated, PD98059 treatment",blocked
same,estrogen's inhibition of Bim accumulation and caspase-3 cleavage,"ELT3 cells [3]; preincubation, after 4 h in detachment conditions",partially blocked
same,E2-induced phosphorylation of p42/44 MAPK,p42/44 MAPK [4]; pretreatment with PD98059 (50 μM),blocked
CO[C@H]1C[C@@H]2CC[C@@H](C)[C@@](O)(O2)C(=O)C(=O)N2CCCC[C@H]2C(=O)O[C@H]([C@H](C)C[C@@H]2CC[C@@H](OCCO)[C@H](OC)C2)CC(=O)[C@H](C)/C=C(\C)[C@@H](O)[C@@H](OC)C(=O)[C@H](C)C[C@H](C)/C=C/C=C/C=C/1C [RAD001],lung metastasis,[1]; [7],completely blocked
same,primary tumor development,[1]; [7],completely blocked
17β-estriadiol [E2],mTOR activation as measured by ribosomal protein S6 phosphorylation,ribosomal protein S6,does not affect
same,DNA fragmentation,"ELT3 cells [3]; 10 nM E2, PolyHEMA, at 1 and 24 h, ELISA",significantly reduced
same,caspase-3 cleavage,"ELT3 cells [3]; 10 nM E2, PolyHEMA, at 6, 16 and 24 h",reduced
same,3H-thymidine incorporation after replating,"ELT3 cells [3]; 24 h on PolyHEMA, 24 h after replating on adherent plates",significant increase
same,accumulation of Bim,ELT3 cells [3]; after 1 h in detachment conditions,decreased
same,phosphorylation of S6K and S6,"ELT3 cells [3]; detachment conditions, E2 stimulation",did not change
same,"average number of pulmonary metastases, size-matched subset",[1]; [8],6 metastases/mouse
same,"mice that developed pulmonary metastases, size-matched subset",[1]; [8],Three
same,"primary tumor size, size-matched subset",[1]; [8],198±20 mm^2
same,tumor size relative to placebo-treated animals,"[1]; male mice, 8 weeks post-cell inoculation",2.9 fold
same,average number of pulmonary metastases,"[1]; male mice, 8 weeks post-inoculation",14 metastases/mouse
same,mice with pulmonary metastases,"[1]; male mice, 8 weeks post-inoculation, 10 of 10",100%
same,mice in which tumors arose,"[1]; ovariectomized female CB17-SCID mice, E2 pellets 2.5 mg 90-day release",100%
same,average number of pulmonary metastases,[1]; ovariectomized female mice,15 metastases/mouse
same,mice with pulmonary metastases,"[1]; ovariectomized female mice, 5 of 9",56%
same,mean tumor area,"[1]; ovariectomized female mice, post-inoculation week 8",287±43 mm^2
same,"number of Ki-67 positive cells in tumors, higher than placebo","[1]; xenograft tumors, female mice, vs placebo-treated tumors",17%
same,percentage of cells with primarily nuclear phospho-MAPK,p42/44 MAPK [5],65%
same,"bioluminescence in chest regions, higher than placebo",ELT3-luciferase cells; 3 h post-cell injection,2 fold
same,"bioluminescence in chest regions, higher than placebo",ELT3-luciferase cells; 24 h post-cell injection,5 fold
same,time to increased phosphorylation of C-Raf at Ser-338,C-Raf,≤ 2 min
same,time to induced phosphorylation of p42/44 MAPK,p42/44 MAPK [4]; 10 nM E2,≤ 15 min
same,time to nuclear translocation of phospho-MAPK,p42/44 MAPK [4]; nuclear and cytoplasmic fractions,≤ 5 min
same,increase in circulating cells,"ELT3 cells [2]; 6 h after i.v. injection of 2×10^5 ELT3 cells, vs placebo",2.5 fold
same,increase in lung seeding of ELT3 cells,"ELT3 cells [2]; lungs 24 h after i.v. injection, vs placebo",2 fold
same,amount of circulating tumor cell DNA vs placebo,"ELT3 cells [2]; xenograft mice, 7 weeks post-cell inoculation, tumors of similar size",striking increase
same,increase in 3H-thymidine incorporation,ELT3 cells [6],2.8 fold
